Reference: patent US20260001910A1, “PEPTIDES AND USES THEREOF” (PreveCeutical Medical Inc., priority 2021, published 2026)

Experiments:
uPA (PLAU) mRNA = assay: Real time RT-PCR mRNA expression; type: cell-based, human
Excerpt: (§1) The real-time reverse transcription polymerase chain reaction (RT-PCR) uses fluorescent reporter molecules to monitor the production of amplification products during each cycle of the PCR reaction. This combines the nucleic acid amplification and detection steps into one homogeneous assay and use of appropriate chemistries and data analysis eliminates the need for Southern blotting or DNA sequencing for amplicon identification. Its simplicity, specificity and sensitivity, together with its potential for high throughput and the ongoing introduction of new chemistries, more reliable instrumentation and improved protocols, has made real-time RT-PCR the benchmark technology for the detection and/or comparison of RNA levels.′
(§2) In order to detect and quantify the expression of specific genes at mRNA level, real-time reverse transcriptase polymerase chain reaction (Real time RT-PCR) was performed. Total RNA of samples was isolated and purified using the PureLink® RNA Mini Kit (Life technologies). The concentration of total RNA was detected by NanoDrop 2000 Spectrophotometer (Thermo Scientific). The total RNA (2000 ng) was reverse transcribed using the High-Capacity cDNA Reverse Transcription Kit (Applied Biosystems™).
(§3) The primers of target genes were TaqMan™ Gene Expression Assay for human PLAU (Hs01547054_m1), MMP-2 (Hs01548727_ml), MMP-9 (Hs00957562_m1), Snail-1 (Hs00195591_m1), Snail-2 (Hs00161904_m1), N-cadherin (Hs00983056_m1) and Twist (Hs01675818_s1). Relative quantification was done by reference to 18S ribosomal RNA (18S rRNA) and analysed using the comparative critical threshold (Ct) method
(§4) The mRNA expression of MMPs was measured using qRT-PCR. This was tested three independent times; the results are shown in Tables 8, 9 and 10 for U251, U87 cells and 081024 cells respectively. Results are reported as percent of the control cells (no treatment). SEQ ID NO.

MMP-2 mRNA = assay: Real time RT-PCR mRNA expression; type: cell-based, human
Excerpt: as §1, §2, §3, §4

MMP-9 mRNA = assay: Real time RT-PCR mRNA expression; type: cell-based, human
Excerpt: as §1, §2, §3, §4

[1] = system: U87, U251 and 081024 cells; details: MTT, all three GBM cell lines
Excerpt: (§5) The MTT (3-[4.5-dimethylthiazol-2-yl]-2,5=diphenyl tetrazolium bromide) assay is based on a process undertaken by living cells, involving the conversion of MTT into formazan crystals. This assay is used routinely to measure the in vitro cytotoxic effects of drugs on cell lines or primary patient cells (Van Meerloo et al., 2011).
(§6) The glioblastoma multiforme (GBM) cell lines used were U87 and U251 cells and patient derived cells grown as oncospheres (081024 cells). Human adherent GBM cell lines U87 and U251 were cultured in RPMI medium (Life Technologies Melbourne Australia) supplemented with 5% v/v FBS, 100 U/mL penicillin and 100 μg/mL streptomycin. 081024 cells were cultured in NeuroCult™ NS-A Proliferation medium with 0.2% (v/v) hepain, 20 ng/mL EGF and 10 ng/ml FGF.
(§7) 8×10^3 U87 and 7×10^3 U251 cells per well were seeded in 96 well plates in 200 μL serum-containing RPMI medium and incubated at 37° C. with 5% CO2 for 24 hours. After one wash with serum-free medium, 100 μL serum-free medium with different concentration of peptide SEQ ID NO:1 was added to each well. After 48 hours incubation, 10 μL of 0.5 mg/mL MTT was added and incubated for 2 hours at 37° C. Formazan crystals were dissolved by 200 μL/well dimethyl sulfoxide (DMSO) and shaking for 15 minutes. The UV absorbance was read with an iMark™ microplate absorbance reader at 595 nm (Bio-Rad Laboratories). Background absorbance was subtracted and results expressed as the % viability of control (untreated cells).

[2] = Excerpt: as §5, §6, §7
CDH-2 (N-cadherin) mRNA = assay: Real time RT-PCR mRNA expression (EMT marker); type: cell-based, human
Excerpt: as §1, §2, §3, §4
(§8) Epithelial-mesenchymal transition (EMT) is the process by which epithelial cells acquire a migratory (metastatic) phenotype and so EMT is associated with cancer metastasis, cancer cell stemness, chemoresistance and immune resistance. Therefore, the determination of the mRNA expression of EMT markers is a valuable tool to evaluate invasion potential of cancer cells.
(§9) The ‘Snail’ superfamily is involved in cell differentiation and survival, two processes central in cancer research. Snail-1 has a pivotal role in the regulation of epithelial-mesenchymal transition (EMT) and Snail-1 expression is associated with poor prognosis in metastatic cancer, and tumours with elevated Snail-1 expression are harder to treat. The significance of Snail-1 as a prognostic indicator, its involvement in the regulation of EMT and metastasis, and its roles in both drug and immune resistance point out that Snail-1 is an attractive target for tumour growth inhibition and a target for sensitization to cytotoxic drugs (Kaufhold et al., 2014). Twist is transcriptionally active during cell differentiation and lineage determination. During the establishment of cancer metastases by EMT, Twist acts independently of Snail to suppress E-cadherin and to upregulate N-cadherin (CDH-2) and fibronectin. Snail-2 (Slug) is another member of the SNAIL family of transcriptional activators and serves an important role in suppressing the epithelial phenotype in numerous cancer cells (Iwadate, 2016).

Twist mRNA = assay: Real time RT-PCR mRNA expression (EMT marker); type: cell-based, human
Excerpt: as §1, §2, §3, §4, §8, §9

Snail-2 mRNA = assay: Real time RT-PCR mRNA expression (EMT marker); type: cell-based, human
Excerpt: as §1, §2, §3, §4, §8, §9

Snail-1 mRNA = assay: Real time RT-PCR mRNA expression (EMT marker); type: cell-based, human
Excerpt: as §1, §2, §3, §4, §8, §9

[3] = 081024 cells, baseline expression level = 1
[4] = U87 cells, baseline expression level = 1
[5] = U251 cells, relative to untreated control, 18S rRNA reference

Compound: CC(C)C[C@@H](NC(=O)[C@@H](Cc1ccccc1)NC(=O)CNC(=O)CNC(=O)[C@H](N)Cc1ccc(O)cc1)C(=O)N[C@H](CCCNC(=N)N)C(=O)N[C@H](CCCNC(=N)N)C(N)=O [SEQ ID NO. 1, tyr-Gly-Gly-phe-leu-arg-arg-NH2]
- uPA mRNA expression (uPA (PLAU) mRNA; [3]): 0.67
- uPA mRNA expression (uPA (PLAU) mRNA; [4]): 1.20
- effect on mRNA expression of uPA (in words) (uPA (PLAU) mRNA; U251, U87 and 081024 cells): did not have a statistically significant effect
- uPA mRNA expression (uPA (PLAU) mRNA; [5]): 0.82
- MMP-2 mRNA expression (MMP-2 mRNA; [3]): 0.72
- MMP-2 mRNA expression (MMP-2 mRNA; [4]): 0.74
- effect on mRNA expression of MMP-2 (in words) (MMP-2 mRNA; U251, U87 and 081024 cells): did not have a statistically significant effect
- MMP-2 mRNA expression (MMP-2 mRNA; [5]): 0.95
- MMP-9 mRNA expression (MMP-9 mRNA; [3]): 0.54
- MMP-9 mRNA expression (MMP-9 mRNA; [4]): 0.71
- effect on mRNA expression of MMP-9 (in words) (MMP-9 mRNA; U251, U87 and 081024 cells): did not have a statistically significant effect
- MMP-9 mRNA expression (MMP-9 mRNA; [5]): 1.10
- highest concentration which did not significantly affect cell viability [1]: 0.5 mM
- viability at 5 µM [2]: 95.8%
- viability at 50 µM [2]: 99.1%
- viability at 100 µM [2]: 93.4%
- CDH-2 mRNA expression (CDH-2 (N-cadherin) mRNA; [3]): 0.72
- CDH-2 mRNA expression (CDH-2 (N-cadherin) mRNA; [4]): 0.83
- CDH-2 mRNA expression (CDH-2 (N-cadherin) mRNA; [5]): 0.88
- Twist mRNA expression (Twist mRNA; [3]): 0.73
- Twist mRNA expression (Twist mRNA; [4]): 0.70
- Twist mRNA expression (Twist mRNA; [5]): 0.87
- Snail-2 mRNA expression (Snail-2 mRNA; [3]): 0.78
- Snail-2 mRNA expression (Snail-2 mRNA; [4]): 1.05
- Snail-2 mRNA expression (Snail-2 mRNA; [5]): 1.06
- Snail-1 mRNA expression (Snail-1 mRNA; [3]): halved the expression of Snail-1 mRNA with statistical significance
- Snail-1 mRNA expression (Snail-1 mRNA; 081024 cells, baseline expression level = 1, listed as SEQ ID NO.1): 0.53
- Snail-1 mRNA expression (Snail-1 mRNA; [4]): 0.65
- Snail-1 mRNA expression (Snail-1 mRNA; [5]): 1.11
